Structures can show the parent of a compound that is named as a salt. Where two headings read alike, the source gives them in different places.
Key:
MMP-1 = molecular target: T1, MMP-1 (Homo sapiens, UniProt P03956); test: MMP-1 inhibition (thiopeptide or fluorescent peptide substrate); assay type: biochemical; conditions: for IC50: read-out: MMP1 IC50
T1 sequence (P03956 100-469): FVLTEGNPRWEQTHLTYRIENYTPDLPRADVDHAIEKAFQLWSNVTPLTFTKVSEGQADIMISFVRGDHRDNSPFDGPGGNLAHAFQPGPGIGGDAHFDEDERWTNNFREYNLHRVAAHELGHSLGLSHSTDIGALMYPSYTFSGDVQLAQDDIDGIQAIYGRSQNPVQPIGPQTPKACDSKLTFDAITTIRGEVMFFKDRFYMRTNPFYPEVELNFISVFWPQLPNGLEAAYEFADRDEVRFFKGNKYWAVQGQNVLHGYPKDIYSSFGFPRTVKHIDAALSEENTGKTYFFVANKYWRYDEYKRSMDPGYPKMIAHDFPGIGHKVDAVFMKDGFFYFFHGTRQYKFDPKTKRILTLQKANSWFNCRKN
Procedure: (§1) These standard pharmacological test procedures are based on the cleavage of a thiopeptide substrates such as Ac-Pro-Leu-Gly(2-mercapto-4-methyl-pentanoyl)-Leu-Gly-OEt by the matrix metalloproteinases MMP-1, MMP-13 (collagenases) or MMP-9 (gelatinase), which results in the release of a substrate product that reacts colorimetrically with DTNB (5,5′-dithiobis(2-nitro-benzoic acid)). The enzyme activity is measured by the rate of the color increase. The thiopeptide substrate is made up fresh as a 20 mM stock in 100% DMSO and the DTNB is dissolved in 100% DMSO as a 100 mM stock and stored in the dark at room temperature. Both the substrate and DTNB are diluted together to 1 mM with substrate buffer (50 mM HEPES pH 7.5, 5 mM CaCl2) before use. The stock of enzyme is diluted with buffer (50 mM HEPES, pH 7.5, 5 mM CaCl2, 0.02% Brij) to the desired final concentration. The buffer, enzyme, vehicle or inhibitor, and DTNB/substrate are added in this order to a 96 well plate (total reaction volume of 200 μl) and the increase in color is monitored spectrophotometrically for 5 minutes at 405 nm on a plate reader and the increase in color over time is plotted as a linear line.
(§2) Alternatively, a fluorescent peptide substrate is used. In this test procedure, the peptide substrate contains a fluorescent group and a quenching group. Upon cleavage of the substrate by an MMP, the fluorescence that is generated is quantitated on the fluorescence plate reader. The assay is run in HCBC assay buffer (50 mM HEPES, pH 7.0, 5 mM Ca^+2, 0.02% Brij, 0.5% Cysteine), with human recombinant MMP-1, MMP-9, or MMP-13. The substrate is dissolved in methanol and stored frozen in 1 mM aliquots. For the assay, substrate and enzymes are diluted in HCBC buffer to the desired concentrations. Compounds are added to the 96 well plate containing enzyme and the reaction is started by the addition of substrate. The reaction is read (excitation 340 nm, emission 444 nm) for 10 min. and the increase in fluorescence over time is plotted as a linear line.
(§3) For either the thiopeptide or fluorescent peptide test procedures, the slope of the line is calculated and represents the reaction rate. The linearity of the reaction rate is confirmed (r^2>0.85). The mean (x±sem) of the control rate is calculated and compared for statistical significance (p<0.05) with drug-treated rates using Dunnett's multiple comparison test. Dose-response relationships can be generated using multiple doses of drug and IC50 values with 95% CI are estimated using linear regression.

MMP-9 = MMP-9 (Homo sapiens, UniProt P14780); test: MMP-9 inhibition (thiopeptide or fluorescent peptide substrate); assay type: biochemical; conditions: for IC50: read-out: MMP9 IC50
Procedure: as §1, §2, §3

Sequence of MMP-9 (P14780 94-707): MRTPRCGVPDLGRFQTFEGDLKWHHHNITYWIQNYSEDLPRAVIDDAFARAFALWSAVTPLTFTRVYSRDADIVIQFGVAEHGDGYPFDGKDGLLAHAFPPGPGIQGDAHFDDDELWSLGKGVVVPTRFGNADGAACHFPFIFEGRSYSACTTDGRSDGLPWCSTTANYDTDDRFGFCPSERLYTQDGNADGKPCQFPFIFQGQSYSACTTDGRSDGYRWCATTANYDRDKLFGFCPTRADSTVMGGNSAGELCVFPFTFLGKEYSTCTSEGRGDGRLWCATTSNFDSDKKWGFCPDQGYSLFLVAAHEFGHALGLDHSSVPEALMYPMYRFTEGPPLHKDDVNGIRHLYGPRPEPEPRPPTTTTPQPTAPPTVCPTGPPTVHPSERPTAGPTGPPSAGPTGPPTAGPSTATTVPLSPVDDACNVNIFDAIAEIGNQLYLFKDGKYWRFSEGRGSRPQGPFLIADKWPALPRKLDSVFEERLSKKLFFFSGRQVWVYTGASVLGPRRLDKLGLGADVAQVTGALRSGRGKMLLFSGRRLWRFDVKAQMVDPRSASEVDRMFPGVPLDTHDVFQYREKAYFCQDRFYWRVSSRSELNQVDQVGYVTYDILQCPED

| IC50 (MMP-1) [nM] | IC50 (MMP-9) [µM] | IC50 (MMP-1; cells that print nM) [nM] | MMP1 % inhibition (MMP-1; printed in the MMP1 IC50 column, concentration not given) [%] | MMP9 % inhibition (MMP-9; printed in the MMP9 IC50 column, concentration not given) [%] | SMILES |
| --- | --- | --- | --- | --- | --- |
| 4080 | 0.56 | – | – | – | CC#CCOc1ccc(S(=O)(=O)C2(C(=O)NO)CCN(C(C)=O)CC2)cc1 [Example 64, 1-Acetyl-4-(4-but-2-ynyloxybenzenesulfonyl)piperidine-4-carboxylic acid hydroxamide] |
| 2770 | 0.43 | – | – | – | CC#CCOc1ccc(S(=O)(=O)C2(C(=O)NO)CCN(C(=O)c3ccc(OC)cc3)CC2)cc1 [Example 66, 1-(4-Methoxybenzoyl)-4-(4-but-2-ynyloxybenzenesulfonyl)piperidine-4-carboxylic acid hydroxamide] |
| 2590 | 1.95 | – | – | – | CC#CCOc1ccc(S(=O)(=O)C2(C(=O)NO)CCN(C(=O)OC(C)(C)C)CC2)cc1 [Example 75, Tert-butyl 4-{[4-(2-butynyloxy)phenyl]sulfonyl}-4-[(hydroxyamino)carbonyl-]-1-piperidinecarboxalate] |
| 3800 | 3.58 | – | – | – | CC#CCOc1ccc(S(=O)(=O)CC2(C(=O)NO)CCN(CC#CCO)CC2)cc1 [Example 45] |
| – | – | – | 35 | 50.6 | CC#CCOc1ccc(S(=O)(=O)CC2(C(=O)NO)CCN(C(=N)N)CC2)cc1 [Example 44] |
| 2680 | 1.12 | – | – | – | CC#CCOc1ccc(S(=O)(=O)CC2(C(=O)NO)CCN(Cc3ccccc3)CC2)cc1 [Example 41] |
| 2030 | 0.853 | – | – | – | CC#CCOc1ccc(S(=O)(=O)C2(C(=O)NO)CCN(C(=O)N3CCCC3)CC2)cc1 [Example 67, 4-(4-But-2-ynyloxybenzenesulfonyl)-N-hydroxy-1-(pyrrolidine-1-carbonyl)-4-piperidinecarboxamide] |
| 4500 | 7.89 | – | – | – | CC#CCOc1ccc(S(=O)(=O)C2(C(=O)NO)CCNCC2)cc1 [Example 76, 4-{[4-(2-butynyloxy)phenyl]sulfonyl}-N-hydroxy-4-piperidinecarboxamide hydrochloride] |
| > 10000 | > 5 | – | – | – | CC#CCOc1ccc([S+]([O-])CC2(C(=O)NO)CCNCC2)cc1 (centres unmarked) [Example 33, 4-[[[4-(2-Butynyloxy)phenyl]sulfinyl]methyl]-N-hydroxy-4-piperidinecarboxamide] |
| 3530 | 0.448 | – | – | – | CC#CCOc1ccc(S(=O)(=O)C2(C(=O)NO)CCN(C(=O)c3ccccc3)CC2)cc1 [Example 65, 1-Benzoyl-4-(4-but-2-ynyloxybenzenesulfonyl)piperidine-4-carboxylic acid hydroxamide] |
| 3120 | 0.811 | – | – | – | CC#CCOc1ccc(S(=O)(=O)C2(C(=O)NO)CCN(C(=O)c3cccs3)CC2)cc1 [Example 71, 4-(4-but-2-ynyloxybenzenesulfonyl)-N-hydroxy-1-(2-thienylcarbonyl)-4-piperidinecarboxamide] |
| 2960 | 0.639 | – | – | – | CC#CCOc1ccc(S(=O)(=O)C2(C(=O)NO)CCN(C(=O)c3cccnc3)CC2)cc1 [Example 70, 4-(4-But-2-ynyloxybenzenesulfonyl)-N-hydroxy-1-(3-pyridinylcarbonyl)-4-piperidinecarboxamide] |
| 257000 | 0.125 | – | – | – | CC#CCOc1ccc([S+]([O-])C2(C(=O)NO)CCN(Cc3ccc(Br)cc3)CC2)cc1 (centres unmarked) [Example 82, 1-(4-Bromo-benzyl)-4-(4-But-2-ynyloxy-benzenesulfinyl)-piperidine-4-carboxylic acid hydroxamide hydrochloride] |
| 2190 | 0.149 | – | – | – | CC#CCOc1ccc(S(=O)(=O)C2(C(=O)NO)CCN(Cc3ccc(C(=O)OC)cc3)CC2)cc1 [Example 77, hydrochloride] |
| 4160 | 1.21 | – | – | – | CC#CCOc1ccc(S(=O)(=O)C2(C(=O)NO)CCN(S(=O)(=O)c3ccc(OC)cc3)CC2)cc1 [Example 72, 4-(4-but-2-ynyloxybenzenesulfonyl)-N-hydroxy-1-[(4-methoxyphenyl)-sulfonyl]-4-piperidinecarboxamide] |

Second part, the molecule before the results:

| SMILES | IC50 (MMP-1) [nM] | IC50 (MMP-9) [µM] | IC50 (MMP-1; cells that print nM) [nM] | MMP1 % inhibition (MMP-1; printed in the MMP1 IC50 column, concentration not given) [%] | MMP9 % inhibition (MMP-9; printed in the MMP9 IC50 column, concentration not given) [%] |
| --- | --- | --- | --- | --- | --- |
| CC#CCOc1ccc(S(=O)(=O)C2(C(=O)NO)CCN(Cc3ccc(OCCN4CCCCC4)cc3)CC2)cc1 [Example 26, 4-{[4-(2-Butynyloxy)phenyl]sulfonyl}-1-[4-(2-piperidin-1-yl-ethoxy)-benzyl]-piperidine-4-carboxylic acid hydroxyamide] | – | 0.0251 | 1990 | – | – |
| CC#CCOc1ccc(S(=O)(=O)C2(C(=O)NO)CCN(Cc3ccc(F)cc3)CC2)cc1 [Example 7, 4-(4-But-2-ynyloxy-benzenesulfonyl)-1-(4-fluoro-benzyl)-piperidine-4-carboxylic acid hydroxyamide] | 2500 | 0.225 | – | – | – |
| CC#CCOc1ccc(S(=O)(=O)C2(C(=O)NO)CCN(Cc3ccc(OC)cc3)CC2)cc1 [Example 2, 4-(4-But-2-ynyloxy-benzenesulfonyl)-1-(4-methoxy-benzyl)-piperdine-4-carboxylic acid hydroxyamide] | 2570 | 0.164 | – | – | – |
| C#CCOc1ccc(S(=O)(=O)C2(C(=O)NO)CCN(Cc3ccc(Cl)cc3)CC2)cc1 [Example 29, 1-(4-Chlorobenzyl)-4-(4-prop-2-ynyloxy-benzenesulfonyl)-piperidine-4-carboxylic acid hydroxyamide] | – | 0.016 | 91 | – | – |
| CC#CCOc1ccc(S(=O)(=O)C2(C(=O)NO)CCN(Cc3ccccc3)CC2)cc1 [Example 4, 1-Benzyl-4-(4-but-2-ynyloxy-benzenesulfonyl)-piperdine-4-carboxylic acid hydroxyamide] | 2600 | 0.148 | – | – | – |
| CC#CCOc1ccc(S(=O)(=O)C2(C(=O)NO)CCN(Cc3ccc(C#N)cc3)CC2)cc1 [Example 8, 4-(4-But-2-ynyloxy-benzenesulfonyl)-1-(4-cyano-benzyl)-piperidine-4-carboxylic acid hydroxyamide] | 4700 | 0.218 | – | – | – |
| CC#CCOc1ccc(SCC2(C(=O)NO)CCNCC2)cc1 [Example 31, 4-({[4-(But-2-ynyloxy)phenyl]thio}methyl)-N-hydroxypiperidine-4-carboxamide] | > 10000 | > 10 | – | – | – |
| CC#CCOc1ccc(S(=O)(=O)C2(C(=O)NO)CCN(C(CC)CC)CC2)cc1 [Example 27, 4-{[4-(2-Butynyloxy)phenyl]sulfonyl}-1-(3-pentanyl)-piperidine-4-carboxylic acid hydroxyamide] | > 10000 | 1.54 | – | – | – |
| CC#CCOc1cccc(S(=O)(=O)C2(C(=O)NO)CCN(Cc3ccccc3)CC2)c1 [Example 21, 1-benzyl-4-{[3-(2-butynyloxy)phenyl]sulfonyl}-N-hydroxy-4-piperdine carboxamide] | > 10000 | 3.5 | – | – | – |
| CC#CCOc1ccc(S(=O)(=O)C2(C(=O)NO)CCN(C(C)C)CC2)cc1 [Example 22, 4-{[4-(2-butynyloxy)phenyl]sulfonyl}-N-hydroxy-1-isopropyl-4-piperidine carboxamide] | > 10000 | 1.81 | – | – | – |
| CCC#CCOc1ccc(S(=O)(=O)C2(C(=O)NO)CCN(Cc3ccc(Br)cc3)CC2)cc1 [Example 5, 1-(4-Bromo-benzyl)-4-(4-pent-2-ynyloxy-benzenesulfonyl)-piperdine-4-carboxylic acid hydroxyamide] | 300 | 0.4 | – | – | – |
| CC#CCOc1ccc(S(=O)(=O)C2(C(=O)NO)CCN(Cc3ccc(C)cc3)CC2)cc1 [Example 9, 4-(4-But-2-ynyloxy-benzenesulfonyl)-1-(4-methyl-benzyl)-piperidine-4-carboxylic acid hydroxamide] | 2100 | 0.0962 | – | – | – |
| C#CCOc1ccc(S(=O)(=O)C2(C(=O)NO)CCN(Cc3ccc(OC)cc3)CC2)cc1 [Example 28, 1-(4-Methoxy-benzyl)-4-(4-prop-2-ynyloxy-benzenesulfonyl)-piperidine-4-carboxylic acid hydroxyamide] | – | 0.0154 | 106 | – | – |

From patent publication US6753337B2, “Alkynyl containing hydroxamic acid compounds as matrix metalloproteinase/tace inhibitors” (Wyeth Holdings Corporation, priority 1999, dated 2004)
